Results as given in patent US20150299188A1, “HETEROCYCLIC COMPOUND” (priority 2012, published 2015).

Tested on: FLAP (5-lipoxygenase activating protein)
Experiment: In vitro binding test: displacement of [3H]-7-chloro-3-(5-((3-fluoropyridin-2-yl)methoxy)-2-methylphenyl)-3,4-dihydroquinazolin-2(1H)-one from Sf9 microsome fractions
Parameters: species or system human and mouse
Conditions: Sf9 microsome fractions expressing FLAP; 100% = radioligand binding with 10 μM sodium 3-(3-(tert-butylsulfanyl)-1-(4-chlorobenzyl)-5-isopropyl-1H-indol-2-yl)-2,2-dimethylpropanoate, 0% = DMSO; test compound concentration not given
Procedure, shortened: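 Sf9 microsomes expressing human or mouse FLAP (2 μg/mL) preincubated with compound 10 min at room temperature, then 120 nM tritiated quinazolinone ligand added for 60 min; buffer 100 mM Tris-HCl pH 7.5 with NaCl, EDTA, DTT, glycerol, Tween20. Bound ligand filtered and counted by scintillation; 10 μM indole propanoate defines 100% inhibition, DMSO 0%.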

| Compound | inhibitory rate (%) |
| --- | --- |
| CC(C)(O)c1ccc2c(c1)NC(=O)N(c1cc(OCc3c(F)cccc3F)ccc1Cc1ccccn1)C2 [Example 316, 3-(5-((2,6-difluorobenzyl)oxy)-2-(pyridin-2-ylmethyl)phenyl)-7-(2-hydroxypropan-2-yl)-3,4-dihydroquinazolin-2(1H)-one] | 50 |
| O=C1Nc2cc(CO)ccc2CN1c1cc(OCc2c(F)cccc2F)ccc1Cc1ccccn1 [Example 317, 3-(5-((2,6-difluorobenzyl)oxy)-2-(pyridin-2-ylmethyl)phenyl)-7-(hydroxymethyl)-3,4-dihydroquinazolin-2(1H)-one] | 54 |
| Cc1ccc(OCc2ncccc2F)cc1N1Cc2c(Cl)ncnc2NC1=O [Example 318, 5-chloro-3-(5-((3-fluoropyridin-2-yl)methoxy)-2-methylphenyl)-3,4-dihydropyrimido[4,5-d]pyrimidin-2(1H)-one] | 62 |
| COc1ncnc2c1CN(c1cc(OCc3ncccc3F)ccc1C)C(=O)N2 [Example 319, 3-(5-((3-fluoropyridin-2-yl)methoxy)-2-methylphenyl)-5-methoxy-3,4-dihydropyrimido[4,5-d]pyrimidin-2(1H)-one] | 52 |
| Cc1ccc(OCc2ncccc2F)cc1N1Cc2c(ccnc2C2CC2)NC1=O [Example 320, 5-cyclopropyl-3-(5-((3-fluoropyridin-2-yl)methoxy)-2-methylphenyl)-3,4-dihydropyrido[4,3-d]pyrimidin-2(1H)-one] | 101 |
| Cc1ccc(OCc2ncccc2F)cc1N1Cc2c(ccnc2C#N)NC1=O [Example 321, 3-(5-((3-fluoropyridin-2-yl)methoxy)-2-methylphenyl)-2-oxo-1,2,3,4-tetrahydropyrido[4,3-d]pyrimidine-5-carbonitrile] | 90 |
| Cc1ccc(OCc2ncccc2F)cc1N1Cc2c(ccnc2C(N)=O)NC1=O [Example 322, 3-(5-((3-fluoropyridin-2-yl)methoxy)-2-methylphenyl)-2-oxo-1,2,3,4-tetrahydropyrido[4,3-d]pyrimidine-5-carboxamide] | 97 |

Now from value to molecule:

| inhibitory rate (%) | Compound |
| --- | --- |
| 94 | Cc1ccc(OCc2ncccc2F)cc1N1Cc2c(ccnc2C)NC1=O [Example 323, 3-(5-((3-fluoropyridin-2-yl)methoxy)-2-methylphenyl)-5-methyl-3,4-dihydropyrido[4,3-d]pyrimidin-2(1H)-one] |
| 50 | O=c1[nH]c2ccccc2c(=O)n1-c1cc(OCc2c(F)cccc2F)ccn1 [Example 324, 3-(4-((2,6-difluorobenzyl)oxy)pyridin-2-yl)quinazoline-2,4(1H,3H)-dione] |
| 65 | O=c1[nH]c2cc[nH]c2c(=O)n1-c1cccc(OCc2c(F)cccc2F)c1 [Example 325, 3-(3-((2,6-difluorobenzyl)oxy)phenyl)-1H-pyrrolo[3,2-d]pyrimidine-2,4(3H,5H)-dione] |
| 95 | O=c1[nH]c2ccccc2c(=O)n1-c1ccc2c(c1)OC(c1c(F)cccc1F)CC2 (centres unmarked) [Example 326, 3-(2-(2,6-difluorophenyl)-3,4-dihydro-2H-chromen-7-yl)quinazoline-2,4(1H,3H)-dione] |
| 107 | Cc1cc2c(cc1-n1c(=O)[nH]c3ccccc3c1=O)OC(c1ncccc1F)CC2 (centres unmarked) [Example 327, 3-(2-(3-fluoropyridin-2-yl)-6-methyl-3,4-dihydro-2H-chromen-7-yl)quinazoline-2,4(1H,3H)-dione] |
| 111 | COCCn1c(=O)n(-c2cc3c(cc2C)CCC(c2ncccc2F)O3)c(=O)c2ccccc21 (centres unmarked) [Example 328, 3-(2-(3-fluoropyridin-2-yl)-6-methyl-3,4-dihydro-2H-chromen-7-yl)-1-(2-methoxyethyl)quinazoline-2,4(1H,3H)-dione] |
| 103 | Cn1c(=O)n(-c2ccc3c(c2)OC(c2c(F)cccc2F)CC3)c(=O)c2ccccc21 (centres unmarked) [Example 329, 3-(2-(2,6-difluorophenyl)-3,4-dihydro-2H-chromen-7-yl)-1-methylquinazoline-2,4(1H,3H)-dione] |
